In this assay the test system is C. albicans strain (C.a. 15). Put plainly: Time-kill curve. The assay is classed as cell-based. To be noted: oil at its MFC, 2×10^5 CFU/ml C.a. 15, 35° C. As to the method:
A C. albicans strain (C.a. 15) was incubated with cinnamaldheyde and eugenol at their MFC. The C. albicans colonies were suspended in Sabouraud broth at a density corresponding to #1.4 McFarland (4×10^6 CFU/ml), then diluted 1/10 (4×10^5 CFU/ml, for a final concentration of 2×10^5 CFU/ml). The suspension was divided into aliquots, two aliquots were incubated with the oils (½ v/v) prepared at a concentration double of their MFC (for a final concentration equal to MFC); the third aliquot was diluted ½ with Sabouraud broth and was used as negative control. The mixtures were incubated at 35° C. on swinging plate. At T0, T1 h, T2 h, T4 h, T6 h, T8 h, T12 h and T24 h, 1/10 serial dilutions were carried out, to determine the total vital count (TVC). From each dilution, 100 μl were seeded in PDA and incubated at 35° C. for 24 hours, then the colonies were counted, their number expressed as CFU/ml. The test was carried out in duplicate.

We go through 1 compound from patent publication US20240197650A1, “Combination of Cinnamaldheyde and Eugenol with Antimycotic Activity” (priority 2021, published 2024).

With `C=CCc1ccc(O)c(OC)c1` [Eugenol, eugenol], the “time to kill all the fungal cells” value is reported as “within the first hour”. The “time to kill all the fungal cells” value (listed as eugenol) came to 1 h.
